Experimental data reported in ChEMBL document CHEMBL3774369, “Tetrahydroisoquinoline Phenols: Selective Estrogen Receptor Downregulator Antagonists with Oral Bioavailability in Rat” (ACS Med Chem Lett, 2016).

Assays:
[1] = Percentage unbound in Han Wistar rat plasma by equilibrium dialysis method; type: ADME, cell-free
[2] = Percentage unbound in human plasma by equilibrium dialysis method; type: ADME, cell-free
[3] = Intrinsic clearance in Han Wistar rat hepatocytes assessed per 10^6 cells; type: ADME, cell-based, Hepatocyte; conditions: read-out: CLH
[4] = Intrinsic clearance in human hepatocytes assessed per 10^6 cells; type: ADME, cell-based, Hepatocyte; conditions: read-out: CLH
[5] = Clearance in rat at 0.5 mg/kg, iv or 1 mg/kg, po; type: ADME, organism-based; conditions: in vivo
[6] = Volume of distribution at steady state in rat at 0.5 mg/kg, iv or 1 mg/kg, po; type: ADME, organism-based; conditions: in vivo, read-out: Vdss
[7] = Half life in rat at 1 mg/kg, po; type: ADME, organism-based; conditions: in vivo
[8] = Half life in rat at 0.5 mg/kg, iv; type: ADME, organism-based; conditions: in vivo
[9] = physchem; conditions: buffer, pH 7.4
[10] = in vivo; conditions: rat, po, 1 mg/kg
[11] = molecular target: T1, Adenosine receptor A1 (Homo sapiens, UniProt P30542); assay: Inhibition of recombinant human adenosine receptor A1 expressed in CHO cells; type: cell-based
T1 sequence (P30542 whole entry): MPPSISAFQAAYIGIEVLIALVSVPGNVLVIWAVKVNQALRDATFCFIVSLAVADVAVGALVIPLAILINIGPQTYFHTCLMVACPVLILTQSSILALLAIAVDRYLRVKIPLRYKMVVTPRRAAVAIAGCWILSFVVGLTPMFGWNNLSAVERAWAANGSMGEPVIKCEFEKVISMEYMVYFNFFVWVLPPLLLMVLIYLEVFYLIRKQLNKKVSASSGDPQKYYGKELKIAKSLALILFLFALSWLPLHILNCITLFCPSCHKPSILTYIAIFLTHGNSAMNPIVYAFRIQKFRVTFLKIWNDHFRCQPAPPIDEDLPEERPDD

[12] = molecular target: T2, B2 bradykinin receptor (Homo sapiens, UniProt P30411); assay: Inhibition of recombinant human bradykinin receptor 2 expressed in CHO cells; type: cell-based
T2 sequence (P30411 whole entry): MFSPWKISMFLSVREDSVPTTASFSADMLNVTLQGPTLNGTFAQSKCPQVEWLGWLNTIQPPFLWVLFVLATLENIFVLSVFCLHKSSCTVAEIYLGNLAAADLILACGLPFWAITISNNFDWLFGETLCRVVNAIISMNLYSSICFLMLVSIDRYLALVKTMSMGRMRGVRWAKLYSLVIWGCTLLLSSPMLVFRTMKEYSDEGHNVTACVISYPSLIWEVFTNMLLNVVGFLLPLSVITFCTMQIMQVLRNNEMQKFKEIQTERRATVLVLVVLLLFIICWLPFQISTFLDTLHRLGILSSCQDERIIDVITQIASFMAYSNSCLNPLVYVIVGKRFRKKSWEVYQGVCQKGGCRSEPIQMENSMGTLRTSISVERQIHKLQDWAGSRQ

[13] = molecular target: Mu-type opioid receptor (Homo sapiens, UniProt P35372); assay: Inhibition of human recombinant mu1 opioid receptor expressed in HEK293 cells; type: cell-based
[14] = Solubility of compound in aqueous phosphate buffer at pH 7.4 after 24 hrs; type: physicochemical
[15] = Inhibition of cytochrome P450 (unknown origin); type: ADME, Homo sapiens
[16] = molecular target: Voltage-gated inwardly rectifying potassium channel KCNH2 (Homo sapiens, UniProt Q12809); assay: Inhibition of human ERG tail current by plate-based planar patch clamp system
Sequence of Voltage-gated inwardly rectifying potassium channel KCNH2 (Q12809 whole entry): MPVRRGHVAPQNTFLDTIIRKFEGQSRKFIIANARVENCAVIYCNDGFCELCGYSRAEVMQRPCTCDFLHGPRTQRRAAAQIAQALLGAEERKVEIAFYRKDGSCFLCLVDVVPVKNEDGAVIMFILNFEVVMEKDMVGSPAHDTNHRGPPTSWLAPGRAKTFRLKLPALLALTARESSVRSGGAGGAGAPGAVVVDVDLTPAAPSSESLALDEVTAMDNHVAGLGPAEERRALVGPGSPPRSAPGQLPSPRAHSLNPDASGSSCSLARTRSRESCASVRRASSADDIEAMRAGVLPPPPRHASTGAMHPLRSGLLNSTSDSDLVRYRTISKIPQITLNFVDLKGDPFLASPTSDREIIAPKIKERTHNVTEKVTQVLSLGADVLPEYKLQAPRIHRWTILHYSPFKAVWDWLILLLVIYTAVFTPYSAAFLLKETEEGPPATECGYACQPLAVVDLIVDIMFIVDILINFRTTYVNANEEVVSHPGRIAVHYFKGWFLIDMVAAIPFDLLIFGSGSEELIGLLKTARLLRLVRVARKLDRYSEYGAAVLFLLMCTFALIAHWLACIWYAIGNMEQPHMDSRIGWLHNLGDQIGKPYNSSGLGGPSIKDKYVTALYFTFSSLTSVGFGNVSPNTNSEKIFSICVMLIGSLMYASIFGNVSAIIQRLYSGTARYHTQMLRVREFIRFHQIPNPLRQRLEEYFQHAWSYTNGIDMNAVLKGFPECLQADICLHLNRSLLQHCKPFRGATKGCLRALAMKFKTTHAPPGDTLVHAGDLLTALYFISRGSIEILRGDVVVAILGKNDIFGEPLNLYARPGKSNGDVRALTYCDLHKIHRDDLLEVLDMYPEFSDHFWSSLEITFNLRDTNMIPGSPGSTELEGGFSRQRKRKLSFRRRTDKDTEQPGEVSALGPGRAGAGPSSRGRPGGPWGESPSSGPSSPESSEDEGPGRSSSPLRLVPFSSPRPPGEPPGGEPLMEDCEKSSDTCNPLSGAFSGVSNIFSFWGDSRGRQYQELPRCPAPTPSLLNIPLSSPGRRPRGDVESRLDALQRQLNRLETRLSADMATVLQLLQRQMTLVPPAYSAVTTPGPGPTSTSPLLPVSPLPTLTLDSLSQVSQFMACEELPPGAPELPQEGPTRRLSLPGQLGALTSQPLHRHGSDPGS

Sequence of Mu-type opioid receptor (P35372 whole entry): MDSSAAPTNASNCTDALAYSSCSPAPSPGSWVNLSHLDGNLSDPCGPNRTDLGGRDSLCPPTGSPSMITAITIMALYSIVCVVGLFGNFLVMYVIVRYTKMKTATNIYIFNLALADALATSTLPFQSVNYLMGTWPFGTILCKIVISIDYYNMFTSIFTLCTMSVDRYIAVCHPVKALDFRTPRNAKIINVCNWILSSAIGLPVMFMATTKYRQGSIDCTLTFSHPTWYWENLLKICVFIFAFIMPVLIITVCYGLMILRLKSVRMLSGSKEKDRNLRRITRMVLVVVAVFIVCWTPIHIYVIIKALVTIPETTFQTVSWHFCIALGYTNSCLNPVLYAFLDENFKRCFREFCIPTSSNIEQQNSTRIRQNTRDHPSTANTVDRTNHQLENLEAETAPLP

`C[C@@H]1Cc2cc(O)ccc2[C@@H](c2ccc(/C=C/C(=O)O)cc2)N1c1ccc(OC(F)(F)F)cc1` showed a fraction unbound [1] of 0.0002, a fraction unbound [2] of 0.009 and a hepatocyte CLint [3] of 9 µL/min/1e6 cells. The hepatocyte CLint [4] was 9 µL/min/1e6 cells, the clearance [5] was 4.2 mL/min/kg and the Vd [6] was 1.1 L/kg. The half-life [7] was 6.7 h, the half-life [8] was 4.2 h and the logD [9] was 4.2.
`C[C@H](CF)CN1[C@H](c2ccc(/C=C/C(=O)O)cc2)c2ccc(O)cc2CC1(C)C` gave a fraction unbound [1] of 0.028, a fraction unbound [2] of 0.01 and a hepatocyte CLint [3] of 24 µL/min/1e6 cells. For the same compound, the hepatocyte CLint [4] was 14 µL/min/1e6 cells, the bioavailability [10] was greater than 70% and the logD [9] was 1.8.
`CC(C)CN1[C@H](c2ccc(/C=C/C(=O)O)cc2)c2ccc(O)cc2CC1(C)C` showed a fraction unbound [1] of 0.11, a fraction unbound [2] of 0.035 and a hepatocyte CLint [3] of 7 µL/min/1e6 cells. For the same compound, the hepatocyte CLint [4] was 6 µL/min/1e6 cells, the clearance [5] was 21 mL/min/kg and the Vd [6] was 5.9 L/kg. For the same compound, the half-life [7] was 7.4 h, the half-life [8] was 5.8 h and the bioavailability [10] was 66%. The logD [9] was 1.5.
Work on `CC(C)CN1CCc2cc(O)ccc2[C@@]1(C)c1ccc(/C=C/C(=O)O)cc1` yielded a fraction unbound [1] of 0.019, a fraction unbound [2] of 0.009 and a hepatocyte CLint [3] of 33 µL/min/1e6 cells. For the same compound, the hepatocyte CLint [4] was 40 µL/min/1e6 cells and the logD [9] was 2.2.
For `CC(C)CN1[C@H](c2ccc(/C=C/C(=O)O)cc2)c2ccc(O)cc2C[C@H]1C`, the IC50 [11] was 29 µM, the IC50 [12] was 20 µM and the IC50 [13] was 12 µM. For the same compound, the solubility at 24 h [14] was greater than 1500 µM, the IC50 [15] was greater than 30 µM and the fraction unbound [1] was 0.075. It also gave a fraction unbound [2] of 0.07, a hepatocyte CLint [3] of 22 µL/min/1e6 cells and a hepatocyte CLint [4] of 33 µL/min/1e6 cells. The clearance [5] was 49 mL/min/kg, the Vd [6] was 0.6 L/kg and the half-life [7] was 3.9 h. The half-life [8] was 0.2 h, the IC50 [16] was greater than 30 µM and the bioavailability [10] was 86%. It also gave a logD [9] of 1.7.
`C[C@H](CF)CN1[C@H](c2ccc(/C=C/C(=O)O)cc2)c2ccc(O)cc2C[C@H]1C` showed a fraction unbound [1] of 0.024, a fraction unbound [2] of 0.026 and a hepatocyte CLint [3] of 47 µL/min/1e6 cells. The hepatocyte CLint [4] was 100 µL/min/1e6 cells.
In the case of `O=C(O)/C=C/c1ccc(C2c3ccc(O)cc3CCN2c2ccc(OC(F)(F)F)cc2)cc1` (stereo unspecified), the fraction unbound [1] is reported as 0.0006, the fraction unbound [2] is reported as 0.0006 and the hepatocyte CLint [3] is reported as 20 µL/min/1e6 cells. The hepatocyte CLint [4] was 11 µL/min/1e6 cells and the logD [9] was 3.7.
With `CC(C)CN1CCc2cc(O)ccc2[C@H]1c1ccc(/C=C/C(=O)O)cc1` the fraction unbound [1] was 0.037, the fraction unbound [2] was 0.063 and the hepatocyte CLint [3] was 38 µL/min/1e6 cells. The hepatocyte CLint [4] was 38 µL/min/1e6 cells, the clearance [5] was 44 mL/min/kg and the Vd [6] was 0.5 L/kg. It also gave a half-life [7] of 3 h, a half-life [8] of 0.2 h and a bioavailability [10] of 26%. The logD [9] was 1.3.
Work on `COC[C@H](C)CN1[C@H](c2ccc(/C=C/C(=O)O)cc2)c2ccc(O)cc2C[C@H]1C` yielded a fraction unbound [1] of 0.12, a fraction unbound [2] of 0.16 and a hepatocyte CLint [3] of 27 µL/min/1e6 cells. For the same compound, the hepatocyte CLint [4] was 7 µL/min/1e6 cells, the clearance [5] was 63 mL/min/kg and the Vd [6] was 0.6 L/kg. For the same compound, the half-life [7] was 1.9 h, the half-life [8] was 0.2 h and the bioavailability [10] was 3%. For the same compound, the logD [9] was 1.
For `COc1ccc2c(c1)C[C@@H](C)N(CC(C)C)[C@@H]2c1ccc(/C=C/C(=O)O)cc1`, the fraction unbound [1] was 0.034, the fraction unbound [2] was 0.02 and the hepatocyte CLint [3] was 43 µL/min/1e6 cells. For the same compound, the hepatocyte CLint [4] was 56 µL/min/1e6 cells and the logD [9] was 2.3.
In the case of `C[C@@H]1Cc2cc(O)ccc2[C@@H](c2c(F)cc(/C=C/C(=O)O)cc2F)N1CC(C)(C)F`, the fraction unbound [1] is reported as 0.011, the fraction unbound [2] is reported as 0.023 and the hepatocyte CLint [3] is reported as 74 µL/min/1e6 cells. For the same compound, the hepatocyte CLint [4] was 78 µL/min/1e6 cells and the logD [9] was 2.1.
Compound `CC(C)CN1CCc2cc(O)ccc2[C@@H]1c1ccc(/C=C/C(=O)O)cc1` has a fraction unbound [1] of 0.087, a fraction unbound [2] of 0.019 and a hepatocyte CLint [3] of 49 µL/min/1e6 cells. The hepatocyte CLint [4] was 4 µL/min/1e6 cells and the logD [9] was 1.4.
Compound `CC(C)CN1[C@H](C)Cc2cc(O)ccc2[C@@]1(C)c1ccc(/C=C/C(=O)O)cc1` has a fraction unbound [1] of 0.013, a fraction unbound [2] of 0.015 and a hepatocyte CLint [3] of 15 µL/min/1e6 cells. It also gave a hepatocyte CLint [4] of 18 µL/min/1e6 cells, a clearance [5] of 19 mL/min/kg and a Vd [6] of 1.6 L/kg. It also gave a half-life [7] of 5.6 h, a half-life [8] of 2.4 h and a bioavailability [10] of 33%. The logD [9] was 2.7.
With `C[C@H](CF)CN1[C@H](c2c(F)cc(/C=C/C(=O)O)cc2F)c2ccc(O)cc2CC1(C)C` the fraction unbound [1] was 0.005, the fraction unbound [2] was 0.002 and the hepatocyte CLint [3] was 68 µL/min/1e6 cells. For the same compound, the hepatocyte CLint [4] was 39 µL/min/1e6 cells and the logD [9] was 3.1.
Compound `C[C@H](CF)CN1[C@H](c2c(F)cc(/C=C/C(=O)O)cc2F)c2ccc(O)cc2C[C@H]1C` has a fraction unbound [1] of 0.01, a fraction unbound [2] of 0.009 and a hepatocyte CLint [3] of 94 µL/min/1e6 cells. For the same compound, the hepatocyte CLint [4] was 170 µL/min/1e6 cells and the logD [9] was 2.5.
With `CC(C)CN1[C@H](c2ccc(/C=C/C(=O)O)cc2)c2ccccc2C[C@H]1C` the fraction unbound [1] was 0.016, the fraction unbound [2] was 0.021 and the hepatocyte CLint [3] was 24 µL/min/1e6 cells. The hepatocyte CLint [4] was 45 µL/min/1e6 cells and the logD [9] was 2.5.
With `Cc1cc2c(cc1O)CCN(CC(C)C)[C@@H]2c1ccc(/C=C/C(=O)O)cc1` the fraction unbound [1] was 0.088, the fraction unbound [2] was 0.091 and the hepatocyte CLint [3] was 17 µL/min/1e6 cells. The hepatocyte CLint [4] was 17 µL/min/1e6 cells and the logD [9] was 1.8.
For `CC(C)CN1[C@H](c2c(F)cc(/C=C/C(=O)O)cc2F)c2ccc(O)cc2CC1(C)C`, the fraction unbound [1] was 0.004, the fraction unbound [2] was 0.005 and the hepatocyte CLint [3] was 34 µL/min/1e6 cells. The hepatocyte CLint [4] was 33 µL/min/1e6 cells, the bioavailability [10] was greater than 70% and the logD [9] was 2.7.
With `COC[C@H](C)CN1[C@H](c2c(F)cc(/C=C/C(=O)O)cc2F)c2ccc(O)cc2CC1(C)C` the fraction unbound [1] was 0.042, the fraction unbound [2] was 0.01 and the hepatocyte CLint [3] was 180 µL/min/1e6 cells. The hepatocyte CLint [4] was 88 µL/min/1e6 cells and the logD [9] was 2.
In the case of `COC[C@H](C)CN1[C@H](c2c(F)cc(/C=C/C(=O)O)cc2F)c2ccc(O)cc2C[C@H]1C`, the fraction unbound [1] is reported as 0.053, the fraction unbound [2] is reported as 0.038 and the hepatocyte CLint [3] is reported as 110 µL/min/1e6 cells. For the same compound, the hepatocyte CLint [4] was 45 µL/min/1e6 cells and the logD [9] was 1.6.
`CC(C)(F)CN1[C@H](c2ccc(/C=C/C(=O)O)cc2)c2ccc(O)cc2CC1(C)C` showed a fraction unbound [1] of 0.025, a fraction unbound [2] of 0.007 and a hepatocyte CLint [3] of 59 µL/min/1e6 cells. For the same compound, the hepatocyte CLint [4] was 19 µL/min/1e6 cells and the logD [9] was 2.3.
Work on `Cc1c(O)ccc2c1CCN(CC(C)C)[C@@H]2c1ccc(/C=C/C(=O)O)cc1` yielded a fraction unbound [1] of 0.063, a fraction unbound [2] of 0.024 and a hepatocyte CLint [3] of 32 µL/min/1e6 cells. The hepatocyte CLint [4] was 9 µL/min/1e6 cells and the logD [9] was 1.6.
Compound `O=C(O)/C=C/c1ccc(C2c3ccc(O)cc3CCN2c2ccccc2)cc1` (stereo unspecified) has a fraction unbound [1] of 0.012, a fraction unbound [2] of 0.012 and a hepatocyte CLint [3] of 87 µL/min/1e6 cells. For the same compound, the hepatocyte CLint [4] was 67 µL/min/1e6 cells and the logD [9] was 2.4.
Compound `O=C(O)/C=C/c1ccc(C2c3ccc(O)cc3CCN2Cc2ccccc2)cc1` (stereo unspecified) has a fraction unbound [1] of 0.013, a fraction unbound [2] of 0.007 and a hepatocyte CLint [3] of 40 µL/min/1e6 cells. The hepatocyte CLint [4] was 150 µL/min/1e6 cells and the logD [9] was 2.2.
